Measured values reported in patent US8877769B2, “Heteroaryl-substituted urea modulators of fatty acid amide hydrolase” (Janssen Pharmaceutica NV, priority 2008, dated 2014).

Legend:
[1] = molecular target: T1, FAAH (Homo sapiens, UniProt O00519); experiment: Assay Method 1: FAAH assay, 3H-anandamide hydrolysis in cell homogenate
T1 sequence (O00519 1-579): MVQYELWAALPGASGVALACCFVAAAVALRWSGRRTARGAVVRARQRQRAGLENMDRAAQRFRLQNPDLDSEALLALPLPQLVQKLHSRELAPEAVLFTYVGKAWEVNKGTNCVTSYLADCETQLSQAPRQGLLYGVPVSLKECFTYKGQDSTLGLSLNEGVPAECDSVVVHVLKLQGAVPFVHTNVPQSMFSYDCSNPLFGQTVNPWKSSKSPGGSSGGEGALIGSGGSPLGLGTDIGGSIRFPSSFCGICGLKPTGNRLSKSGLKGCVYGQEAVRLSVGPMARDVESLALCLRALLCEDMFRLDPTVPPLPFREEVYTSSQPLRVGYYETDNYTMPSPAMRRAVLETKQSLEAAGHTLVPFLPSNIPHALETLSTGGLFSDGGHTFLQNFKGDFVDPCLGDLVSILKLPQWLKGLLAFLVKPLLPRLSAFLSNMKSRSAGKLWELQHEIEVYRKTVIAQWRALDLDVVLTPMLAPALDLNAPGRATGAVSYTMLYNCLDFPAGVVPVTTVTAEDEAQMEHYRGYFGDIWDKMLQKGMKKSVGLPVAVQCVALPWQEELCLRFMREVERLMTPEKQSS
Procedure: The assay mixture consisted of 50 μL of the cell homogenate, 10 μL of the test compound, and 40 μL of anandamide [1-^3H-ethanolamine] (^3H-AEA, Perkin-Elmer, 10.3 Ci/mmol), which was added last, for a final tracer concentration of 80 nM. The reaction mixture was incubated at rt for 1 h. During the incubation, 96-well Multiscreen filter plates (catalog number MAFCNOB50; Millipore, Bedford, Mass., USA) were loaded with 25 μL of activated charcoal (Multiscreen column loader, catalog number MACL09625, Millipore) and washed once with 100 μL of MeOH. […] After the 1 h incubation, 60 μL of the reaction mixture were transferred to the charcoal plates, which were then assembled on top of the DYNEX plates using Centrifuge Alignment Frames (catalog number MACF09604, Millipore). The unbound labeled ethanolamine was centrifuged through to the bottom plate (5 min at 2000 rpm), which was preloaded with the scintillant, as described above. The plates were sealed and left at rt for 1 h before counting on a Hewlett Packard TopCount. • Assay Method 2

[2] = molecular target: T2, Rat FAAH (Rattus norvegicus, UniProt P97612); experiment: Assay Method 2: FAAH assay, 3H-anandamide hydrolysis in cell homogenate; type: biochemical; settings: average of results obtained, > value = solubility limit or highest concentration tested
T2 construct: expressed in transfected cells
T2 sequence (P97612 1-579): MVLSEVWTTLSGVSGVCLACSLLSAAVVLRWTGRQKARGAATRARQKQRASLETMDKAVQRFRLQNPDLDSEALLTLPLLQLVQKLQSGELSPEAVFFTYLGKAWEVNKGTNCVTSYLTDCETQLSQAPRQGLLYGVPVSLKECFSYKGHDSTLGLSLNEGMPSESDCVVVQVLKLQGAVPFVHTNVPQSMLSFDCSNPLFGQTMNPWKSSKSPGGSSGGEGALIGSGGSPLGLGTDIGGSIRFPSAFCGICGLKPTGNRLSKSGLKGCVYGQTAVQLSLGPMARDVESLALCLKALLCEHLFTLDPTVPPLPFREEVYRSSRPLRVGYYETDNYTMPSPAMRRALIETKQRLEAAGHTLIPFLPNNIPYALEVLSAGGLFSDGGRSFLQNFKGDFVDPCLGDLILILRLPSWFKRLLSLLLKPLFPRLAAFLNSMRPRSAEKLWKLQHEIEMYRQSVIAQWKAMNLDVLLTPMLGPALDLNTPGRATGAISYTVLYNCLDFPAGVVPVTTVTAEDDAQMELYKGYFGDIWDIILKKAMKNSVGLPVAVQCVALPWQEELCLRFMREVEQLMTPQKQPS
Procedure: A. Transfection of Cells with Rat FAAH
The assay mixture consisted of 50 μL of the cell homogenate, 10 μL of the test compound, and 40 μL of anandamide [1-^3H-ethanolamine] (^3H-AEA, Perkin-Elmer, 10.3 Ci/mmol), which was added last, for a final tracer concentration of 80 nM. The reaction mixture was incubated at rt for 1 h. During the incubation, 96-well Multiscreen filter plates (catalog number MAFCNOB50; Millipore, Bedford, Mass., USA) were loaded with 25 μL of activated charcoal (Multiscreen column loader, catalog number MACL09625, Millipore) and washed once with 100 μL of MeOH. […] After the 1 h incubation, 60 μL of the reaction mixture were transferred to the charcoal plates, which were then assembled on top of the DYNEX plates using Centrifuge Alignment Frames (catalog number MACF09604, Millipore). The unbound labeled ethanolamine was centrifuged through to the bottom plate (5 min at 2000 rpm), which was preloaded with the scintillant, as described above. The plates were sealed and left at rt for 1 h before counting on a Hewlett Packard TopCount.

What does the source list for O=C(Nc1noc2ncccc12)N1CCN(Cc2ccc(Cl)c(Cl)c2)CC1 [Example 13, 4-(3,4-Dichloro-benzyl)-piperazine-1-carboxylic acid isoxazolo[5,4-b]pyridin-3-ylamide]?
IC50 [1]: 460 nM; IC50 [2]: 3000 nM

Which IC50 [2] does the source give for O=C(Nc1nocc1Cl)N1CCN(Cc2cccc(Oc3ccc(Cl)cc3)c2)CC1 [Example 85, 4-[3-(4-Chloro-phenoxy)-benzyl]-piperazine-1-carboxylic acid (4-chloro-isoxazol-3-yl)-amide] here?
The IC50 was 22 nM.

For O=C(Nc1noc2ncccc12)N1CCN(Cc2ccc3ccccc3c2)CC1 [Example 29, 4-Naphthalen-2-ylmethyl-piperazine-1-carboxylic acid isoxazolo[5,4-b]pyridin-3-ylamide], which IC50 [1] is on record?
Its IC50 is 370 nM.

With O=C(Nc1cnc2[nH]ccc2c1)N1CCN(Cc2cccc(Oc3ccc(Cl)cc3)c2)CC1 [Example 60, 4-[3-(4-Chloro-phenoxy)-benzyl]-piperazine-1-carboxylic acid (1H-pyrrolo[2,3-b]pyridin-5-yl)-amide] as the molecule, how does the IC50 [2] read?
Its IC50 is 16 nM.

For O=C(Nc1cc2nccn2cn1)N1CCN(Cc2cccc(Oc3ccc(Cl)cc3)c2)CC1 [Example 74, 4-[3-(4-Chloro-phenoxy)-benzyl]-piperazine-1-carboxylic acid imidazo[1,2-c]pyrimidin-7-ylamide], which IC50 [2] is on record?
Its IC50 is 500 nM.

For O=C(Nc1cnc2cccnn12)N1CCN(Cc2ccc(Cl)c(Cl)c2)CC1 [Example 2, 4-(3,4-Dichloro-benzyl)-piperazine-1-carboxylic acid imidazo[1,2-b]pyridazin-3-ylamide], which IC50 [1] is on record?
The IC50 was 62 nM.

What about the IC50 [2] of the same molecule?
Its IC50 is 110 nM.

With O=C(Nc1ccn2ccnc2c1)N1CCN(Cc2ccc3c(c2)OC(F)(F)O3)CC1 [Example 73, 4-(2,2-Difluoro-benzo[1,3]dioxol-5-ylmethyl)-piperazine-1-carboxylic acid imidazo[1,2-a]pyridin-7-ylamide] as the molecule, how does the IC50 [1] read?
Its IC50 is 1400 nM.

And the IC50 [2]?
The IC50 was 1600 nM.

What does the source list for O=C(Nc1noc2ncccc12)N1CCN(Cc2ccc(Br)cc2)CC1 [Example 11, 4-(4-Bromo-benzyl)-piperazine-1-carboxylic acid isoxazolo[5,4-b]pyridin-3-ylamide]?
IC50 [1]: > 10000 nM; IC50 [2]: > 10000 nM

How did the IC50 [1] turn out when O=C(Nc1noc2ncccc12)N1CCN(Cc2cccc(Oc3ccc(C(F)(F)F)cc3)c2)CC1 [Example 30, 4-[3-(4-Trifluoromethyl-phenoxy)-benzyl]-piperazine-1-carboxylic acid isoxazolo[5,4-b]pyridin-3-ylamide] was run?
Its IC50 is 340 nM.

And the IC50 [2]?
The IC50 was 430 nM.

O=C(Nc1noc2ncccc12)N1CCN(Cc2ccc(Br)c(Br)c2)CC1 [Example 25, 4-(3,4-Dibromo-benzyl)-piperazine-1-carboxylic acid isoxazolo[5,4-b]pyridin-3-ylamide] was tested. Which IC50 [1] did it give?
Its IC50 is 370 nM.

What about the IC50 [2] of the same molecule?
Its IC50 is 3000 nM.

What does the source list for O=C(Nc1noc2ncccc12)N1CCN(Cc2cccc(Oc3ccc(S(=O)(=O)C(F)(F)F)cc3)c2)CC1 [Example 22, 4-[3-(4-Trifluoromethanesulfonyl-phenoxy)-benzyl]-piperazine-1-carboxylic acid isoxazolo[5,4-b]pyridin-3-ylamide]?
IC50 [1]: > 10000 nM; IC50 [2]: > 10000 nM

N#Cc1cccnc1Oc1cccc(CN2CCN(C(=O)Nc3cnc4[nH]ccc4c3)CC2)c1 [Example 77, 4-[3-(3-Cyano-pyridin-2-yloxy)-benzyl]-piperazine-1-carboxylic acid (1H-pyrrolo[2,3-b]pyridin-5-yl)-amide] was tested. Which IC50 [1] did it give?
The IC50 was 48 nM.

What about the IC50 [2] of the same molecule?
Its IC50 is 2000 nM.

For O=C(Nc1noc2ncccc12)N1CCN(Cc2cccc(Oc3ccc(Cl)cc3)c2)CC1 [Example 20, 4-[3-(4-Chloro-phenoxy)-benzyl]-piperazine-1-carboxylic acid isoxazolo[5,4-b]pyridin-3-ylamide], which IC50 [2] is on record?
Its IC50 is 7 nM.

O=C(Nc1cccc2cn[nH]c12)N1CCN(Cc2cccc(Oc3ccc(Cl)cc3)c2)CC1 [Example 48, 4-[3-(4-Chloro-phenoxy)-benzyl]-piperazine-1-carboxylic acid (1H-indazol-7-yl)-amide] was tested. Which IC50 [2] did it give?
Its IC50 is 3000 nM.

How did the IC50 [2] turn out when O=C(Nc1ccnc2nccn12)N1CCN(Cc2cccc(Oc3ccc(Cl)cc3)c2)CC1 [Example 76, 4-[3-(4-Chloro-phenoxy)-benzyl]-piperazine-1-carboxylic acid imidazo[1,2-a]pyrimidin-5-ylamide] was run?
The IC50 was 31 nM.

For O=C(Nc1cnc2ccccn12)N1CCN(Cc2ccc3c(c2)OC(F)(F)O3)CC1 [Example 58, 4-(2,2-Difluoro-benzo[1,3]dioxol-5-ylmethyl)-piperazine-1-carboxylic acid imidazo[1,2-a]pyridin-3-ylamide], which IC50 [2] is on record?
The IC50 was 2000 nM.

For O=C(Nc1ccc2nccn2c1)N1CCN(Cc2cccc(Oc3ccc(Cl)cc3)c2)CC1 [Example 50, 4-[3-(4-Chloro-phenoxy)-benzyl]-piperazine-1-carboxylic acid imidazo[1,2-a]pyridin-6-ylamide], which IC50 [2] is on record?
The IC50 was 1200 nM.

Which IC50 [1] does the source give for O=C(Nc1nc2ccccc2o1)N1CCN(Cc2cccc(Oc3ccc(Cl)cc3)c2)CC1 [Example 66, 4-[3-(4-Chloro-phenoxy)-benzyl]-piperazine-1-carboxylic acid benzooxazol-2-ylamide] here?
The IC50 was 880 nM.

O=C(Nc1cnc2ccccn12)N1CCN(Cc2cccc(Oc3ccc(Cl)cc3)c2)CC1 [Example 57, 4-[3-(4-Chloro-phenoxy)-benzyl]-piperazine-1-carboxylic acid imidazo[1,2-a]pyridin-3-ylamide] was tested. Which IC50 [2] did it give?
Its IC50 is 98 nM.

With O=C(Nc1cccc2nccn12)N1CCN(Cc2cccc(Oc3ccc(Cl)cc3)c2)CC1 [Example 69, 4-[3-(4-Chloro-phenoxy)-benzyl]-piperazine-1-carboxylic acid imidazo[1,2-a]pyridin-5-ylamide] as the molecule, how does the IC50 [2] read?
The IC50 was 6 nM.

Which IC50 [1] does the source give for O=C(Nc1cccc2cn[nH]c12)N1CCN(Cc2ccc3c(c2)OC(F)(F)O3)CC1 [Example 49, 4-(2,2-Difluoro-benzo[1,3]dioxol-5-ylmethyl)-piperazine-1-carboxylic acid (1H-indazol-7-yl)-amide] here?
The IC50 was greater than 10000 nM.

Cc1nc2cc(NC(=O)N3CCN(Cc4cccc(Oc5ccc(Cl)cc5)c4)CC3)ccc2o1 [Example 63, 4-[3-(4-Chloro-phenoxy)-benzyl]-piperazine-1-carboxylic acid (2-methyl-benzooxazol-5-yl)-amide] was tested. Which IC50 [2] did it give?
Its IC50 is 120 nM.

For O=C(Nc1noc2ncccc12)N1CCN(Cc2ccc(Br)c(F)c2)CC1 [Example 6, 4-(4-Bromo-3-fluoro-benzyl)-piperazine-1-carboxylic acid isoxazolo[5,4-b]pyridin-3-ylamide], which IC50 [2] is on record?
The IC50 was greater than 10000 nM.

Which IC50 [2] does the source give for O=C(Nc1cnc2cccnn12)N1CCN(Cc2cccc(Oc3ccc(Cl)cc3)c2)CC1 [Example 1, 4-[3-(4-Chloro-phenoxy)-benzyl]-piperazine-1-carboxylic acid imidazo[1,2-b]pyridazin-3-ylamide] here?
Its IC50 is 16 nM.

O=C(Nc1noc2cccnc12)N1CCN(Cc2cccc(Oc3ccc(Cl)cc3)c2)CC1 [Example 41, 4-[3-(4-Chloro-phenoxy)-benzyl]-piperazine-1-carboxylic acid isoxazolo[4,5-b]pyridin-3-ylamide] was tested. Which IC50 [2] did it give?
The IC50 was 17 nM.

O=C(Nc1ccn2ccnc2c1)N1CCN(Cc2cccc(Oc3ccc(Cl)cc3)c2)CC1 [Example 72, 4-[3-(4-Chloro-phenoxy)-benzyl]-piperazine-1-carboxylic acid imidazo[1,2-a]pyridin-7-ylamide] was tested. Which IC50 [2] did it give?
The IC50 was 660 nM.

O=C(Nc1ccn2ccnc2n1)N1CCN(Cc2cccc(Oc3ccc(Cl)cc3)c2)CC1 [Example 75, 4-[3-(4-Chloro-phenoxy)-benzyl]-piperazine-1-carboxylic acid imidazo[1,2-a]pyrimidin-7-ylamide] was tested. Which IC50 [2] did it give?
Its IC50 is 830 nM.

How did the IC50 [2] turn out when O=C(Nc1noc2ccncc12)N1CCN(Cc2cccc(Oc3ccc(Cl)cc3)c2)CC1 [Example 40, 4-[3-(4-Chloro-phenoxy)-benzyl]-piperazine-1-carboxylic acid isoxazolo[4,5-c]pyridin-3-ylamide] was run?
The IC50 was 40 nM.
